Assay results taken from paper PMC3024462 (Journal of medicinal chemistry, 2010).

Experiments:
[1] = target: HIV-1 protease (Human immunodeficiency virus type 1 group M subtype B, UniProt P04585); test: HIV-1 protease enzyme inhibitory assay; format: biochemical; details: compared to inhibitor 35a
[2] = system: HIV-1LAI; test: Antiviral activity in MT-2 human T-lymphoid cells exposed to HIV-1LAI, MTT assay; format: cell-based
[3] = system: HIV-1MDR/B (X4); format: cell-based; details: number in parentheses
[4] = system: HIV-1MDR/C (X4); format: cell-based; details: number in parentheses
[5] = system: HIV-1MDR/G (X4); format: cell-based; details: number in parentheses
[6] = system: HIV-1MDR/TM (X4); format: cell-based; details: number in parentheses
[7] = system: HIV-1MDR/MM (R5); format: cell-based; details: number in parentheses
[8] = system: HIV-1MDR/JSL (R5); format: cell-based; details: number in parentheses

SMILES: COc1ccc(S(=O)(=O)N(CC(C)C)C[C@@H](O)[C@H](Cc2ccccc2)NC(=O)O[C@@H]2CCO[C@@H]3OCC[C@@H]32)cc1 [Inhibitor 35b, (3aR,4R,7aS)-Hexahydro-2H-furo[2,3-b]pyran-4-yl ((2S,3R)-3-hydroxy-4-(N-isobutyl-4-methoxyphenylsulfonamido)-1-phenylbutan-2-yl)carbamate]
- fold change in Ki (loss of enzyme inhibitory potency) [1]: > 20 fold
- ID50 (antiviral activity) ([2]; MT-2 cells exposed to HIV-1LAI): 19 nM

SMILES: COc1ccc(S(=O)(=O)N(CC(C)C)C[C@@H](O)[C@H](Cc2ccccc2)NC(=O)O[C@H]2CCC[C@H]3OCC[C@@H]23)cc1 [Inhibitor 35c, (3aR,4S,7aR)-Octahydrobenzofuran-4-yl (2S,3R)-3-hydroxy-4-(N-isobutyl-4-methoxyphenylsulfonamido)-1-phenylbutan-2-yl carbamate]
- fold change in Ki (loss of enzyme inhibitory potency) [1]: 2 fold
- fold decrease in antiviral activity ([2]; compared to inhibitor 35a): 16 fold

SMILES: COC(=O)N[C@H](C(=O)N[C@@H](Cc1ccccc1)[C@@H](O)CN(Cc1ccc(-c2ccccn2)cc1)NC(=O)[C@@H](NC(=O)OC)C(C)(C)C)C(C)(C)C [ATV, atazanavir]
- fold change of EC50 compared to wild-type HIV-1ERS104pre [3]: 174
- fold change of EC50 compared to wild-type HIV-1ERS104pre [4]: 14
- fold change of EC50 compared to wild-type HIV-1ERS104pre [5]: 7
- fold change of EC50 compared to wild-type HIV-1ERS104pre [6]: 28
- fold change of EC50 compared to wild-type HIV-1ERS104pre [7]: 76
- fold change of EC50 compared to wild-type HIV-1ERS104pre [8]: 109

SMILES: COc1ccc(S(=O)(=O)N(CC(C)C)C[C@@H](O)[C@H](Cc2ccccc2)NC(=O)O[C@H]2CCO[C@H]3COC[C@H]32)cc1 [Inhibitor 35f, (4S,4aS,7aR)-Hexahydro-2H-furo[3,4-b]pyran-4-yl ((2S,3R)-3-hydroxy-4-(N-isobutyl-4-methoxyphenylsulfonamido)-1-phenylbutan-2-yl)carbamate]
- antiviral activity (in words) ([2]; MT-2 cells exposed to HIV-1LAI): no antiviral activity
